Reference: publication PMC10138577, “Prenylated Flavonoids with Selective Toxicity against Human Cancers” (International Journal of Molecular Sciences, 2023)

Tests used:
Type in all cases: cell-based
[1] = test system: MCF-7 human breast adenocarcinoma cells; assay: In vitro antiproliferative assay (SRB), MCF-7; settings: for IC50: Homo sapiens, MCF7, MCF-7, 72 h exposure, SRB, mean ± SD; for Calculated selectivity index SIB: IC50 BALB/3T3/IC50 MCF-7; for Calculated selectivity index SIA: IC50 HLMEC/IC50 MCF-7
Source text: (§1) The following established in vitro cell lines were applied: human breast adenocarcinoma (MCF-7 and SK-BR-3), human breast ductal carcinoma (T47D), human prostate adenocarcinoma (PC-3), human prostate carcinoma (Du145), human colorectal adenocarcinoma (HT-29 and LoVo), doxorubicin-resistant human colorectal adenocarcinoma (LoVo/Dx), human myelomonocytic leukemia (MV-4-11), human lung adenocarcinoma (A549), normal murine embryonic fibroblasts (BALB/3T3) and human lung microvascular endothelial (HLMEC). All the cell lines were obtained from the American Type Culture Collection (Rockville, MD, USA) except for LoVo and LoVo/DX, which were received from the Technical University of Gdańsk, Poland, courtesy of Prof. E. Borowski. All the cell lines were maintained in the Institute of Immunology and Experimental Therapy, Wroclaw, Poland. The cells were cultured in the following media: DMEM medium (BALB/3T3), Eagle medium (MCF-7, SK-BR-3, Du145), RPMI medium (HLMEC, MV-4-11) or RPMI 1640 + Opti-MEM (1:1) medium (A549, T47D, LoVo, LoVo/Dx, PC-3, HT-29). The DMEM medium was supplemented with 2 mM L-glutamine and 10% fetal bovine serum. The Eagle medium was supplemented with 4 mM L-glutamine, 10% fetal bovine serum, 1 mM sodium pyruvate for Du145 cells or 2 mM L-glutamine, 1% amino acids and 0.8 mg L^−1 of insulin for MCF-7 and SK-BR-3. The RPMI medium was supplemented with 2 mM L-glutamine, 1 mM sodium pyruvate and 10% fetal bovine serum. The RPMI 1640 + Opti-MEM (1:1) medium was supplemented with 2 mM L-glutamine, 5% fetal bovine serum (PC-3, A549) and 0.8 mg L^−1 insulin (T47D) or 1 mM sodium pyruvate (HT-29, LoVo, LoVoDx) and 0.1 ug/mL doxorubicin (LoVo/Dx). The media contained antibiotics: 100 µg mL^−1 streptomycin and 100 U mL^−1 penicillin. All the cell lines were incubated at 37 °C in a humid atmosphere saturated with 5% CO2.
(§2) The details of this technique were described by Skehan et al.. After 72 h of incubation with the tested compounds, the cells were fixed in situ by gently adding cold 50% trichloroacetic acid—TCA (50 µL per well). The plates were incubated at 4 °C for 1 h and then washed five times with tap water and air-dried. Next, the cellular material fixed with TCA was stained by adding 50 µL of 0.4% sulforhodamine B dissolved in 1% acetic acid to each well and incubating the wells for 30 min at room temperature. The unbound dye was removed by washing the plates five times with 1% acetic acid, whereas the stain bound to the cells was extracted with 150 µL of 10 mM unbuffered Tris base for determination of the optical density at a 540 nm wavelength in a computer-interfaced, 96-well microtiter plate reader–Multiskan FC photometer (Thermo Scientific, Waltham, MA, USA). The background optical density was measured in the wells filled with culture medium, without the cells.
(§3) Twenty-four hours before incubation with the tested compounds, the cells were seeded in 96-well plates (Sarstedt, Nümbrecht, Germany) at a density of 10^4 cells per well (10^3 cells per well for HLMEC) in 100 µL of culture medium. The analysis of the antiproliferative activity of the compounds was performed using sulforhothamine B (SRB) (for all the adherent cells) or 3-(4,5-dimethylthiazol-2-yl)-2,5-diphenyl tetrazolium bromide (MTT) (for the leukemia cells—MV-4-11). The details of this technique have been previously described by Skehan et al. and Antoszak et al.. An assay was performed after 72 h of exposure at varying concentrations (from 0.1 to 100 µg mL^−1) of xanthohumol (1), aurone (2) and the reference drug cisplatin. Each compound at each concentration was tested in a single experiment, which was repeated at least 3 times. […] The results were calculated as the IC50 (μM) (half maximal inhibitory concentration), i.e., the concentration of the tested agent that inhibits the proliferation of the cancer cell population by half. […]

[2] = test system: SK-BR-3 human breast adenocarcinoma cells; assay: In vitro antiproliferative assay (SRB), SK-BR-3; settings: for IC50: Homo sapiens, SK-BR-3, 72 h exposure, SRB, mean ± SD; for Calculated selectivity index SIB: IC50 BALB/3T3/IC50 SK-BR-3; for Calculated selectivity index SIA: IC50 HLMEC/IC50 SK-BR-3
Source text: as §1, §2, §3

[3] = test system: T47D human breast ductal carcinoma cells; assay: In vitro antiproliferative assay (SRB), T47D; settings: for IC50: Homo sapiens, T47D, 72 h exposure, SRB, mean ± SD; for Calculated selectivity index SIB: IC50 BALB/3T3/IC50 T47D; for Calculated selectivity index SIA: IC50 HLMEC/IC50 T47D
Source text: as §1, §2, §3

[4] = test system: LoVo human colorectal adenocarcinoma cells; assay: In vitro antiproliferative assay (SRB), LoVo; settings: for IC50: Homo sapiens, LoVo, 72 h exposure, SRB, mean ± SD; for Calculated selectivity index SIB: IC50 BALB/3T3/IC50 LoVo; for Calculated selectivity index SIA: IC50 HLMEC/IC50 LoVo
Source text: as §1, §2, §3

[5] = test system: LoVo/Dx doxorubicin-resistant human colorectal adenocarcinoma cells; assay: In vitro antiproliferative assay (SRB), LoVo/Dx; settings: for IC50: Homo sapiens, LoVo/Dx, 72 h exposure, SRB, mean ± SD; for Calculated selectivity index SIB: IC50 BALB/3T3/IC50 LoVo/Dx; for Calculated selectivity index SIA: IC50 HLMEC/IC50 LoVo/Dx
Source text: as §1, §2, §3

[6] = test system: PC-3 human prostate adenocarcinoma cells; assay: In vitro antiproliferative assay (SRB), PC-3; settings: for IC50: Homo sapiens, PC-3, 72 h exposure, SRB, mean ± SD; for Calculated selectivity index SIB: IC50 BALB/3T3/IC50 PC-3; for Calculated selectivity index SIA: IC50 HLMEC/IC50 PC-3
Source text: as §1, §2, §3

[7] = test system: Du145 human prostate carcinoma cells; assay: In vitro antiproliferative assay (SRB), Du145; settings: for IC50: Homo sapiens, DU-145, Du145, 72 h exposure, SRB, mean ± SD; for Calculated selectivity index SIB: IC50 BALB/3T3/IC50 Du145; for Calculated selectivity index SIA: IC50 HLMEC/IC50 Du145
Source text: as §1, §2, §3

[8] = test system: A549 human lung adenocarcinoma cells; assay: In vitro antiproliferative assay (SRB), A549; settings: for IC50: Homo sapiens, A549, 72 h exposure, SRB, mean ± SD; for Calculated selectivity index SIB: IC50 BALB/3T3/IC50 A549; for Calculated selectivity index SIA: IC50 HLMEC/IC50 A549
Source text: as §1, §2, §3

[9] = test system: human lung microvascular endothelial (HLMEC) cells; assay: In vitro cytotoxicity against normal cells (SRB), HLMEC; settings: for IC50: Homo sapiens, HLMEC normal cell line, 72 h exposure, SRB, mean ± SD, read-out: Antiproliferative activity IC50
Source text: as §1
(§4) The details of this technique were described by Skehan et al.. […] The unbound dye was removed by washing the plates five times with 1% acetic acid, whereas the stain bound to the cells was extracted with 150 µL of 10 mM unbuffered Tris base for determination of the optical density at a 540 nm wavelength in a computer-interfaced, 96-well microtiter plate reader–Multiskan FC photometer (Thermo Scientific, Waltham, MA, USA). The background optical density was measured in the wells filled with culture medium, without the cells.
(§5) Twenty-four hours before incubation with the tested compounds, the cells were seeded in 96-well plates (Sarstedt, Nümbrecht, Germany) at a density of 10^4 cells per well (10^3 cells per well for HLMEC) in 100 µL of culture medium. […] The results were calculated as the IC50 (μM) (half maximal inhibitory concentration), i.e., the concentration of the tested agent that inhibits the proliferation of the cancer cell population by half. […]

[10] = test system: normal murine embryonic fibroblasts (BALB/3T3); assay: In vitro cytotoxicity against normal cells (SRB), BALB/3T3; settings: BALB/3T3; for IC50: Mus musculus, BALB3T3 normal cell line, 72 h exposure, SRB, mean ± SD, read-out: Antiproliferative activity IC50
Source text: as §1, §4, §5

Compound	IC50 [1]	Calculated selectivity index SIB [1]	Calculated selectivity index SIA [1]	IC50 [2]	Calculated selectivity index SIB [2]	Calculated selectivity index SIA [2]	IC50 [3]	Calculated selectivity index SIB [3]	Calculated selectivity index SIA [3]	IC50 [4]	Calculated selectivity index SIB [4]	Calculated selectivity index SIA [4]	IC50 [5]	Calculated selectivity index SIB [5]	Calculated selectivity index SIA [5]	IC50 [6]	Calculated selectivity index SIB [6]	Calculated selectivity index SIA [6]	IC50 [7]	Calculated selectivity index SIB [7]	further results
COc1cc(O)c(CC=C(C)C)c(O)c1C(=O)/C=C/c1ccc(O)cc1 [compound 1, 3′-[3″,3″-dimethylallyl]-2′,4′,4-trihydroxy-6′-methoxychalcone]	9.29 ± 0.27 µM	2.11	3.91	12.6 ± 2.28 µM	1.56	2.89	8.27 ± 1.23 µM	2.37	4.39	5.53 ± 1.64 µM	3.55	6.56	7.28 ± 1.22 µM	2.70	4.99	9.15 ± 0.88 µM	2.14	3.97	10.3 ± 0.42 µM	1.90	Calculated selectivity index SIA [7]: 3.51; IC50 [8]: 10 ± 0.71 µM; Calculated selectivity index SIB [8]: 1.96; Calculated selectivity index SIA [8]: 3.62; IC50 [9]: 36.3 ± 6.7 µM; IC50 [10]: 19.6 ± 2.95 µM
COc1cc(O)c(CC=C(C)C)c2c1C(=O)/C(=C/c1ccc(O)cc1)O2 [compound 2, (Z)-6,4′-dihydroxy-4-methoxy-7-prenylaurone]	9.28 ± 0.5 µM	4.79	5.69	11.3 ± 0.17 µM	3.93	4.67	8.09 ± 2.21 µM	5.50	6.53	8.85 ± 4.85 µM	5.02	5.97	7.83 ± 2.82 µM	5.68	6.75	19.1 ± 9.27 µM	2.33	2.77	14.7 ± 4.42 µM	3.02	Calculated selectivity index SIB ([5]; listed as aurone (2)): 5.97; Calculated selectivity index SIA [7]: 3.59; IC50 [8]: 16.6 ± 3.29 µM; Calculated selectivity index SIB [8]: 2.68; Calculated selectivity index SIA [8]: 3.18; reduction of cytotoxic effect against normal cells relative to xanthohumol (1) ([9]; HLMEC, p < 0.05): 1.5 fold; IC50 [9]: 52.8 ± 8.03 µM; reduction of cytotoxic effect against normal cells relative to xanthohumol (1) ([10]; p < 0.05): 2.3 fold; IC50 [10]: 44.5 ± 5.16 µM
